According to patent publication US11524966B1 (Valo Early Discovery, Inc., priority 2017, dated 2022):

Molecular target: T1, USP28 (His-tagged USP28-FL-mammalian) (Homo sapiens, UniProt Q96RU2)
T1 construct: Expression of USP28 (1-1077)-TEV-6*His (pTT5 vector); made in house; host or cells: Expi293f cells (pTT5 vector)
T1 sequence (Q96RU2 1-1077): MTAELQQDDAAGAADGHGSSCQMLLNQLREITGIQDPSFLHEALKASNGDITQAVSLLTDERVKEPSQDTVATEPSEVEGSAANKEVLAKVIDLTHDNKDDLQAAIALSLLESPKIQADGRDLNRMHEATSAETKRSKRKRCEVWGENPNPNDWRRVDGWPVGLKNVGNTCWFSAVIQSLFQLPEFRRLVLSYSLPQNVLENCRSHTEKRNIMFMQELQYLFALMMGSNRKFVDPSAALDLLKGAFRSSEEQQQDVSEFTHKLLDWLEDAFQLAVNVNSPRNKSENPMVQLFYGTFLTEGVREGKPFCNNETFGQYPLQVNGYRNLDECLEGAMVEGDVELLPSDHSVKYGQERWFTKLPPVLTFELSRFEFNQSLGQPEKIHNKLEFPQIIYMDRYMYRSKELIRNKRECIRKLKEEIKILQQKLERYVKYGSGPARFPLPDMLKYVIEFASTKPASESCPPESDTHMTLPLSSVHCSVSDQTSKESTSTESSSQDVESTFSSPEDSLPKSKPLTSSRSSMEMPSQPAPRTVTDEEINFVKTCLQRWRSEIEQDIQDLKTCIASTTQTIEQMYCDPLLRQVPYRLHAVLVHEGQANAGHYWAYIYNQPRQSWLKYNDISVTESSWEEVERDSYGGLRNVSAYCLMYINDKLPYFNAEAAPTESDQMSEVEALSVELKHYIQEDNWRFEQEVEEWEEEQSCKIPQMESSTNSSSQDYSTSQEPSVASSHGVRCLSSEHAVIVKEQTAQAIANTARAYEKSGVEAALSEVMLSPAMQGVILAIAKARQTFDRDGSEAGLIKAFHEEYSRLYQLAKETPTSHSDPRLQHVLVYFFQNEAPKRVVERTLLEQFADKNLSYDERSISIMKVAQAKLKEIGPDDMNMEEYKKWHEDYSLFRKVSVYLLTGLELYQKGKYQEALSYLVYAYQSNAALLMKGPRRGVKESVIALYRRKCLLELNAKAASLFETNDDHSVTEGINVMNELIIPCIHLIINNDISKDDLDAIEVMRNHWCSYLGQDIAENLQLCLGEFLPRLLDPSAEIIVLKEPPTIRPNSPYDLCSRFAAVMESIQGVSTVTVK
Experiment: Ubiquitin-Rhodamine 110 Assay for USP28 Activity, Example A-1(a)
Type: biochemical
Settings: Ubiquitin-Rhodamine 110 assay, Example A-1(a); read-out: USP28 A-1(a) IC50 range
In short: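 IC50 from 4-parameter logistic fit of percent inhibition versus no-enzyme and DMSO controls; compounds 25 μM to 1.3 nM, 3-fold. Ub-Rh110 cleavage (25 nM, below Km) by […] mammalian-expressed USP28-FL-His ran 45 min at room temperature, stopped with 10 mM citric acid, read ex 485/em 535.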

SMILES	IC50 [nM]
CCn1ccc2cc(C(=O)N[C@H]3CCc4nc(N5C[C@H](N)C6(COC6)C5)ccc4C3)cnc21 [Example 403, N-[(6S)-2-[(8R)-8-amino-2-oxa-6-azaspiro[3.4]octan-6-yl]-5,6,7,8-tetrahydroquinolin-6-yl]-1-ethyl-1H-pyrrolo[2,3-b]pyridine-5-carboxamide]	> 2000
CCn1ccc2cc(C(=O)N[C@H]3CCc4nc(N5C[C@@H](N)C6(COC6)C5)ccc4C3)cnc21 [Example 404, N-[(6S)-2-[(8S)-8-amino-2-oxa-6-azaspiro[3.4]octan-6-yl]-5,6,7,8-tetrahydroquinolin-6-yl]-1-ethyl-1H-pyrrolo[2,3-b]pyridine-5-carboxamide]	200 to 2000
Cc1ccc2c(N)c(C(=O)N[C@H]3CCc4nc(N5CC[C@@]6(C5)OCC[C@H]6N)ccc4C3)sc2n1 [Example 405, 3-amino-N-[(6S)-2-[(4R,5S)-4-amino-1-oxa-7-azaspiro[4.4]nonan-7-yl]-5,6,7,8-tetrahydroquinolin-6-yl]-6-methylthieno[2,3-b]pyridine-2-carboxamide]	50 to 200
Cc1ccc2c(N)c(C(=O)N[C@H]3CCc4nc(N5CC[C@]6(C5)OCC[C@@H]6N)ccc4C3)sc2n1 [Example 406, 3-amino-N-[(6S)-2-[(4S,5R)-4-amino-1-oxa-7-azaspiro[4.4]nonan-7-yl]-5,6,7,8-tetrahydroquinolin-6-yl]-6-methylthieno[2,3-b]pyridine-2-carboxamide]	200 to 2000
Cc1ccc2c(N)c(C(=O)N[C@H]3CCc4nc(N5CC[C@@]6(C5)OCC[C@@H]6N)ccc4C3)sc2n1 [Example 407, 3-amino-N-[(6S)-2-[(4S,5S)-4-amino-1-oxa-7-azaspiro[4.4]nonan-7-yl]-5,6,7,8-tetrahydroquinolin-6-yl]-6-methylthieno[2,3-b]pyridine-2-carboxamide]	50 to 200
Cc1ccc2c(N)c(C(=O)N[C@H]3CCc4nc(N5CC[C@]6(C5)OCC[C@H]6N)ccc4C3)sc2n1 [Example 408, 3-amino-N-[(6S)-2-[(4R,5R)-4-amino-1-oxa-7-azaspiro[4.4]nonan-7-yl]-5,6,7,8-tetrahydroquinolin-6-yl]-6-methylthieno[2,3-b]pyridine-2-carboxamide]	50 to 200
Cc1ccc2c(N)c(C(=O)N[C@H]3COc4cc(N5CC[C@]6(C5)OCC[C@H]6N)ccc4C3)sc2n1 [Example 410, 3-amino-N-[(3R)-7-[(4R,5R)-4-amino-1-oxa-7-azaspiro[4.4]nonan-7-yl]-3,4-dihydro-2H-1-benzopyran-3-yl]-6-methylthieno[2,3-b]pyridine-2-carboxamide]	1 to 50
Cc1ccc2c(N)c(C(=O)N[C@H]3COc4cc(N5CC[C@@]6(C5)OCC[C@@H]6N)ccc4C3)sc2n1 [Example 411, 3-amino-N-[(3R)-7-[(4S,5S)-4-amino-1-oxa-7-azaspiro[4.4]nonan-7-yl]-3,4-dihydro-2H-1-benzopyran-3-yl]-6-methylthieno[2,3-b]pyridine-2-carboxamide]	1 to 50
COC[C@H]1[C@H](N)CCN1c1ccc2c(n1)CC[C@H](NC(=O)c1sc3nc(C)ccc3c1N)C2 [Example 419, 3-amino-N-[(6S)-2-[(2R,3R)-3-amino-2-(methoxymethyl)pyrrolidin-1-yl]-5,6,7,8-tetrahydroquinolin-6-yl]-6-methylthieno[2,3-b]pyridine-2-carboxamide]	50 to 200
COC[C@@H]1[C@@H](N)CCN1c1ccc2c(n1)CC[C@H](NC(=O)c1sc3nc(C)ccc3c1N)C2 [Example 420, 3-amino-N-[(6S)-2-[(2S,3S)-3-amino-2-(methoxymethyl)pyrrolidin-1-yl]-5,6,7,8-tetrahydroquinolin-6-yl]-6-methylthieno[2,3-b]pyridine-2-carboxamide]	1 to 50
CCn1ccc2cc(C(=O)N[C@H]3CCc4nc(N5C[C@H](N)[C@@H](C(F)(F)F)C5)ccc4C3)cnc21 [Example 421, N-[(6S)-2-[(3R,4S)-3-amino-4-(trifluoromethyl)pyrrolidin-1-yl]-5,6,7,8-tetrahydroquinolin-6-yl]-1-ethyl-1H-pyrrolo[2,3-b]pyridine-5-carboxamide]	50 to 200
CCn1ccc2cc(C(=O)N[C@H]3CCc4nc(N5C[C@@H](N)[C@H](C(F)(F)F)C5)ccc4C3)cnc21 [Example 422, N-[(6S)-2-[(3S,4R)-3-amino-4-(trifluoromethyl)pyrrolidin-1-yl]-5,6,7,8-tetrahydroquinolin-6-yl]-1-ethyl-1H-pyrrolo[2,3-b]pyridine-5-carboxamide]	200 to 2000
Cc1ccc2c(N)c(C(=O)N[C@H]3COc4cc(N5C[C@@H](CF)[C@@H](N)C5)ccc4C3)sc2n1 [Example 423, 3-amino-N-[(3R)-7-[(3R,4R)-3-amino-4-(fluoromethyl)pyrrolidin-1-yl]-3,4-dihydro-2H-1-benzopyran-3-yl]-6-methylthieno[2,3-b]pyridine-2-carboxamide]	1 to 50
Cc1ccc2c(N)c(C(=O)N[C@H]3COc4cc(N5C[C@@H](N)[C@@H]6OCC[C@@H]65)ccc4C3)sc2n1 [Example 425, N-[(3R)-7-[(3aS,6R,6aS)-6-amino-hexahydro-2H-furo[3,2-b]pyrrol-4-yl]-3,4-dihydro-2H-1-benzopyran-3-yl]-3-amino-6-methylthieno[2,3-b]pyridine-2-carboxamide]	1 to 50
Cc1ccc2c(N)c(C(=O)N[C@H]3COc4cc(N5C[C@H](N)[C@H]6OCC[C@H]65)ccc4C3)sc2n1 [Example 426, N-[(3R)-7-[(3aR,6S,6aR)-6-amino-hexahydro-2H-furo[3,2-b]pyrrol-4-yl]-3,4-dihydro-2H-1-benzopyran-3-yl]-3-amino-6-methylthieno[2,3-b]pyridine-2-carboxamide]	1 to 50
CO[C@]1(C)CN(c2ccc3c(n2)CC[C@H](NC(=O)c2sc4nc(C)ccc4c2N)C3)C[C@@H]1N [Example 427, 3-amino-N-[(6S)-2-[(3R,4S)-4-amino-3-methoxy-3-methylpyrrolidin-1-yl]-5,6,7,8-tetrahydroquinolin-6-yl]-6-methylthieno[2,3-b]pyridine-2-carboxamide]	50 to 200
CO[C@@]1(C)CN(c2ccc3c(n2)CC[C@H](NC(=O)c2sc4nc(C)ccc4c2N)C3)C[C@H]1N [Example 428, 3-amino-N-[(6S)-2-[(3S,4R)-4-amino-3-methoxy-3-methylpyrrolidin-1-yl]-5,6,7,8-tetrahydroquinolin-6-yl]-6-methylthieno[2,3-b]pyridine-2-carboxamide]	50 to 200
Cc1ccc2c(N)c(C(=O)N[C@H]3CCc4nc(N5C6CC(N)CC5CS(=O)(=O)C6)ccc4C3)sc2n1 (stereo partly drawn) [Example 429, 3-amino-N-[(6S)-2-{7-amino-3,3-dioxo-3λ^6-thia-9-azabicyclo[3.3.1]nonan-9-yl}-5,6,7,8-tetrahydroquinolin-6-yl]-6-methylthieno[2,3-b]pyridine-2-carboxamide]	1 to 50
Cc1ccc2c(N)c(C(=O)N[C@H]3CCc4nc(N5C[C@H](N)[C@]6(CCOC6)C5)ccc4C3)sc2n1 [Example 430, 3-amino-N-[(6S)-2-[(5S,9R)-9-amino-2-oxa-7-azaspiro[4.4]nonan-7-yl]-5,6,7,8-tetrahydroquinolin-6-yl]-6-methylthieno[2,3-b]pyridine-2-carboxamide]	50 to 200
Cc1ccc2c(N)c(C(=O)N[C@H]3CCc4nc(N5C[C@@H](N)[C@@]6(CCOC6)C5)ccc4C3)sc2n1 [Example 431, 3-amino-N-[(6S)-2-[(5R,9S)-9-amino-2-oxa-7-azaspiro[4.4]nonan-7-yl]-5,6,7,8-tetrahydroquinolin-6-yl]-6-methylthieno[2,3-b]pyridine-2-carboxamide]	50 to 200
Cc1ccc2c(N)c(C(=O)N[C@H]3COc4cc(N5C[C@@H](N)[C@]6(CCOC6)C5)ccc4C3)sc2n1 [Example 432, 3-amino-N-[(3R)-7-[(5S,9S)-9-amino-2-oxa-7-azaspiro[4.4]nonan-7-yl]-3,4-dihydro-2H-1-benzopyran-3-yl]-6-methylthieno[2,3-b]pyridine-2-carboxamide]	1 to 50
Cc1ccc2c(N)c(C(=O)N[C@H]3COc4cc(N5C[C@@H](N)[C@@]6(CCOC6)C5)ccc4C3)sc2n1 [Example 433, 3-amino-N-[(3R)-7-[(5R,9S)-9-amino-2-oxa-7-azaspiro[4.4]nonan-7-yl]-3,4-dihydro-2H-1-benzopyran-3-yl]-6-methylthieno[2,3-b]pyridine-2-carboxamide]	1 to 50
